Measurements reported in patent US11427574B2, “Compounds for treating Rac-GTPase mediated disorder” (Children's Medical Center Corporation, priority 2015, dated 2022).

What was measured:
SEM leukemic cell line = assay: In vivo SEM leukemia model in NSG mice; settings: 250 mg/Kg twice a day for 21 days
Protocol: (§1) Compound 1 was assayed for its pharmacokinetics and anti-leukemia activities in mice. Specifically, a SEM leukemic cell line was labeled with a vector encoding the mCherry tag and Luciferase. 500,000 labeled cells were injected into immunodeficient mice (NSG mice). After establishment of leukemia (as assessed by bioluminescent imaging), mice were treated with Compound 1 at a dose 250 mg/Kg or a vehicle for 21 days twice a day. During treatment, mice were imaged every other day and BLI recorded and analyzed. 2 hours after the last dose, animals were sacrificed and organs harvested for PK and PD analysis.
FIGS. 8b and 8c show the bioluminescence data obtained from the mice treated with Compound 1 and a vehicle when the mice were imaged in a supine position and a prone position, respectively.

12 GPCRs = assay: GPCR profiling, whole panel; type: binding; settings: summary of Table 2, antagonist and agonist
Protocol: (§2) Compound 1 was tested for its efficacy in inhibiting activities of 40 kinases and binding with 12 GPCRs both as an antagonist and an agonist.

SEM cells = assay: Proliferation assay in SEM leukemia cells; type: cell-based; settings: read-out: IC50, inhibition of proliferation
Protocol: (§3) Dose Dependent Inhibition of Proliferation The 100 compounds selected from the initial in silico screen were assayed for inhibition of proliferation in two leukemia cell lines, SEM and P12 by Cell Titer Glo. The cells for the proliferation assay were spun down and re-suspended. The cell suspension was then divided and the compound to be tested added in desired concentrations and subsequently plated. Following an incubation period, the Cell Titer Glo reagent (Promega CellTiter 96® Aqueous Non-Radioactive Cell Proliferation Assay) was added and allowed to incubate. The absorbance is subsequently measured at 490 nm using a plate reader. Each compound was analyzed for its effects on cell proliferation.
(§4) The lead compound, i.e. Compound 1, was analyzed for its effect on cell proliferation at various doses on three different leukemia cell lines: SEM, P12, and Loucy. In order to quantitate the percentage inhibition of cell proliferation, Cell Titer Glo analysis was completed as described in Example 2 above.
FIGS. 3a-3c show three graphs illustrating the dose dependent inhibition of proliferation of Compound 1 in SEM, P12, and Loucy cells as measured by MTS assay. […] Compound 1 was further analyzed for its effect on cell apoptosis and cell death using a flow based assay using Annexin V staining. […]

CDC42 = biological target: T1, CDC42 (Homo sapiens, UniProt P60953); assay: CDC42 activation pull down assay (Western blot); type: cell-based; settings: Western Blot (FIG. 10a)
T1 construct: endogenous in cells
Protocol: (§5) To determine which of these compounds should be further pursued, a biochemical pull down assay was performed to confirm specific inhibition of Rac activation indicated by disruption of the interaction between Rac and […]. The assay initially required treatment of cells followed by pull down and analysis with Western blot. The cells were first starved in serum free media for 2 hours. They were then re-suspended in serum-containing medium and inhibitors added at desired concentration. Following incubation for the desired length of time, the cells were pelleted and lysed with Magnesium Lysis Buffer (Millipore Mg^2+ lysis/wash buffer). The Rac protein and any bound proteins were then collected with Pak Beads (Millipore Rac/cdc42 Assay Reagent (PAK-1 PBD, agarose). Bound protein was subsequently removed with lysis buffer and subject to Western Blot analysis.
Compound 1 was tested to evaluate its effect on CDC42 activation. In this case, beads for the immunoprecipitation were coated with a CDC42 effector domain. […] The Western Blot and pull down analyses are also shown for DMSO and […].

Rac [1] = assay: Rac activation Elisa on spleen infiltrated by leukemic blasts; type: in vivo; settings: mice, 250 mg/Kg twice a day for 21 days, compared to a vehicle
Protocol: as §1

40 kinases = assay: Kinase screening, whole panel; type: biochemical; settings: summary of Table 1
Protocol: as §2

RAS = RAS activation pull down assay (Western blot); type: cell-based; settings: Western Blot (FIG. 11b)
Text: (§6) Compound 1 was further tested to evaluate its effect on RHOA and RAS activation.

RHOA = biological target: T2, RHOA (Homo sapiens, UniProt P61586); assay: RHOA activation pull down assay (Western blot); type: cell-based; settings: Western Blot (FIG. 11a)
T2 construct: endogenous in cells
Text: as §6

MAPK3 (ERK1) = MAPK3 (ERK1) (Homo sapiens, UniProt P27361); assay: Kinase screening; type: biochemical
Protocol: as §2

JAK2 = JAK2 (Homo sapiens, UniProt O60674); assay: Kinase screening; type: biochemical
Protocol: as §2

AKT2 (PKB beta) = AKT2 (PKB beta) (Homo sapiens, UniProt P31751); assay: Kinase screening; type: biochemical
Protocol: as §2

IGF1R = IGF1R (Homo sapiens, UniProt P08069); assay: Kinase screening; type: biochemical
Protocol: as §2

CDK1/cyclin B = CDK1/cyclin B (Homo sapiens, UniProt P06493); assay: Kinase screening; type: biochemical
Protocol: as §2

JAK1 = JAK1 (Homo sapiens, UniProt P23458); assay: Kinase screening; type: biochemical
Protocol: as §2

LIMK2 = LIMK2 (Homo sapiens, UniProt P53671); assay: Kinase screening; type: biochemical
Protocol: as §2

JAK3 = JAK3 (Homo sapiens, UniProt P52333); assay: Kinase screening; type: biochemical
Protocol: as §2

ABL1 = ABL1 (Homo sapiens, UniProt P00519); assay: Kinase screening; type: biochemical
Protocol: as §2

PIK3C2A (PI3K-C2 alpha) = PIK3C2A (PI3K-C2 alpha) (Homo sapiens, UniProt O00443); assay: Kinase screening; type: biochemical
Protocol: as §2

EPHB1 = EPHB1 (Homo sapiens, UniProt P54762); assay: Kinase screening; type: biochemical
Protocol: as §2

P12-Ichikawa cells = assay: Proliferation assay in P12 leukemia cells; type: cell-based; settings: Homo sapiens, read-out: IC50, inhibition of proliferation
Protocol: as §3, §4
(§7) FIGS. 3a-3c show three graphs illustrating the dose dependent inhibition of proliferation of Compound 1 in SEM, P12, and Loucy cells as measured by MTS assay. […] Compound 1 was further analyzed for its effect on cell apoptosis and cell death using a flow based assay using Annexin V staining.

SEM cell line = assay: Annexin V flow assay for apoptosis and cell death, SEM; type: cell-based; settings: Annexin V staining
Text: as §7
Compound 2 was further analyzed for its effect on cell apoptosis and cell death using a flow based assay using Annexin V staining.

Rac [2] = assay: Rac activation pull down assay (PAK beads, Western blot); type: cell-based; settings: Western Blot (FIG. 2a)
Protocol: as §5
Compound 1 was identified as a lead compound from the above analyses. […] The Western Blot and pull down analyses are also shown for the compound DMSO, and the compound NSC23776, which is a known inhibitor of Rac1 binding and of Rac activation by Rac-specific RhoGEFs.

T1 sequence (P60953 whole entry): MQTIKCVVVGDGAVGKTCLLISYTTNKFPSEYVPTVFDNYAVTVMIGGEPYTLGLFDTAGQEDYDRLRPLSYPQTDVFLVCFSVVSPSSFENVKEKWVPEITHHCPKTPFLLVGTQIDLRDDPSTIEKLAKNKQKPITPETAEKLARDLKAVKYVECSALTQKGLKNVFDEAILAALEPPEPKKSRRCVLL
Chain of PIK3C2A (PI3K-C2 alpha) (O00443 whole entry, species assumed): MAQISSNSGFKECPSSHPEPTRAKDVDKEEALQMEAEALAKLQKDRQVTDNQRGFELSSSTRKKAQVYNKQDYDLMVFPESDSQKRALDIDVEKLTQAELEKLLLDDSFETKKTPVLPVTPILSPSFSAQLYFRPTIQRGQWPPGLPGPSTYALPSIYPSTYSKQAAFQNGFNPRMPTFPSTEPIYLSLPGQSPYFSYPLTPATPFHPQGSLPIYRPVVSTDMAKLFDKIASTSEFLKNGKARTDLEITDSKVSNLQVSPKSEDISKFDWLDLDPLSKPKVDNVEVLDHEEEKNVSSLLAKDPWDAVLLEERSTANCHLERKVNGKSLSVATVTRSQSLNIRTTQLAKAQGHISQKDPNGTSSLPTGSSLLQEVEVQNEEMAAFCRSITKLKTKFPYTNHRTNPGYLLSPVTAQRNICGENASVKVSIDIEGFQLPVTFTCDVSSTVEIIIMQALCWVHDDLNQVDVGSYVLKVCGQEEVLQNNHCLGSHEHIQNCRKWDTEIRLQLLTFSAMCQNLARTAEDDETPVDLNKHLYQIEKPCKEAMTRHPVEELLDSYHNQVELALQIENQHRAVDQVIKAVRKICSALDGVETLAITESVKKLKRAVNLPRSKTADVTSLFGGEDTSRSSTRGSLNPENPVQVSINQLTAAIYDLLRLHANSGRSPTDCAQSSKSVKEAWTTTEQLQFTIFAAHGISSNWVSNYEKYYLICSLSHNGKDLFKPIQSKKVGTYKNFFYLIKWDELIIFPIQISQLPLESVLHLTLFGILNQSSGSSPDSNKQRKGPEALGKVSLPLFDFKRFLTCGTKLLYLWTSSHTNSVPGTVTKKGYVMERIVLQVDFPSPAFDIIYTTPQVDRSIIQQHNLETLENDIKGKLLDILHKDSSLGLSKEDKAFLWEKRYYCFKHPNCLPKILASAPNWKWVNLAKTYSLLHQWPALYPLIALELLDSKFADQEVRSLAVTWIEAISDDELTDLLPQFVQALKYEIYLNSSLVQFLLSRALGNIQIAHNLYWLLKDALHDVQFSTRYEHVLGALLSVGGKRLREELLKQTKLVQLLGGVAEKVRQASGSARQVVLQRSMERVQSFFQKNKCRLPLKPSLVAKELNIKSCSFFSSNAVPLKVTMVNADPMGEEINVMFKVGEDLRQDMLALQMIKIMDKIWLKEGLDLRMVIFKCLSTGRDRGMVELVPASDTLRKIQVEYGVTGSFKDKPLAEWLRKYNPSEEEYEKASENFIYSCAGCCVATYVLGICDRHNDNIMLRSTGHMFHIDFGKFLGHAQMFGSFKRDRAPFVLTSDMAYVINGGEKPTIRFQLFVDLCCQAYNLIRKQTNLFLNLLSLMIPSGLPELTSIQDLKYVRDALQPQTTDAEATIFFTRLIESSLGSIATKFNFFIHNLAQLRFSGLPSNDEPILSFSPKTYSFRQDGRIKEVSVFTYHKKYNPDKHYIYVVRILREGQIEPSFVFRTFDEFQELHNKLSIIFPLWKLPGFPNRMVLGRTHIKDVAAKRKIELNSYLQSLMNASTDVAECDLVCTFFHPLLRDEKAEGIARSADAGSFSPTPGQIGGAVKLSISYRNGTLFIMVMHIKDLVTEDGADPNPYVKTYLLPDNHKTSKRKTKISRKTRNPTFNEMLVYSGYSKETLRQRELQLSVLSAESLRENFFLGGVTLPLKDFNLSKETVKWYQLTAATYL
Chain of JAK1 (P23458 whole entry, species assumed): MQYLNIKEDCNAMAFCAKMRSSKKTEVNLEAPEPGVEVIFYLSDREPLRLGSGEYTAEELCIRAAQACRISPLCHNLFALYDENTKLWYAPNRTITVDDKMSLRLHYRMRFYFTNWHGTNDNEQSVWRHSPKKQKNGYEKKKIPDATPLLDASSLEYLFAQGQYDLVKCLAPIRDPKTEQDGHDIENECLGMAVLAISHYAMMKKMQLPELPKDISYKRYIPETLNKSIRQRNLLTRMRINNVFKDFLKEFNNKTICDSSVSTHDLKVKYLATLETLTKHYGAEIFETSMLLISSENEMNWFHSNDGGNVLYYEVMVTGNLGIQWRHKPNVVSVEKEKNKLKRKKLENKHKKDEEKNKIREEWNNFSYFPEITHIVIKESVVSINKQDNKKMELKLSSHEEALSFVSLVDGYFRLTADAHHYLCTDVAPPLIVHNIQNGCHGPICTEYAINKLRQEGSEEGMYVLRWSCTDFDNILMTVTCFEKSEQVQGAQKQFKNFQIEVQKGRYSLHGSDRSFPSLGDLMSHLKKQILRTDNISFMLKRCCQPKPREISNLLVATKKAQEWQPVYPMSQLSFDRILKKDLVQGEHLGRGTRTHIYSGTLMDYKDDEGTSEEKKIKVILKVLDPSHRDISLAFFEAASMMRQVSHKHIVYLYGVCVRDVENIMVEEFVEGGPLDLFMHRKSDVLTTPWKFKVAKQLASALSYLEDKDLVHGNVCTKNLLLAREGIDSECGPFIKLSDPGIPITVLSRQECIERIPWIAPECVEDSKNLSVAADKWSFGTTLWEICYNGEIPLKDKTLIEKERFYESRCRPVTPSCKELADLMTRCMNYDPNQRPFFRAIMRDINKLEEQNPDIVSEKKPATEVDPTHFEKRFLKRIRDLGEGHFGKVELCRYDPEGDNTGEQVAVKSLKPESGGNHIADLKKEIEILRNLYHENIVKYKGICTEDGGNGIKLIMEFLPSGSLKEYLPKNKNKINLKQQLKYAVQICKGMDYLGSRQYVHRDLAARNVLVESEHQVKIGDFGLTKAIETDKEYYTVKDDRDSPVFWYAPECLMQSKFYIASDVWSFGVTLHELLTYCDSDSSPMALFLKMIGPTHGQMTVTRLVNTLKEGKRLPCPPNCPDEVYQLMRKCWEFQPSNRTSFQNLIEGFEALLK
Chain of CDK1/cyclin B (P06493 whole entry, species assumed): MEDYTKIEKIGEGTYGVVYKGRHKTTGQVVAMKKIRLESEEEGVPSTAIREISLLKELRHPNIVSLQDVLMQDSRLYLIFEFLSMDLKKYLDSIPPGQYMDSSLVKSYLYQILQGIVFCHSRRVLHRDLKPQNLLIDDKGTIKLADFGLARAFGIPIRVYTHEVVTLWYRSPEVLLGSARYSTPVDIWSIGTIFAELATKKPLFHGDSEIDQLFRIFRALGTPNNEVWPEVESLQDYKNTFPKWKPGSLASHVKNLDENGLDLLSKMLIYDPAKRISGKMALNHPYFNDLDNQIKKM
Chain of CDK1/cyclin B (P14635 whole entry partner, species assumed): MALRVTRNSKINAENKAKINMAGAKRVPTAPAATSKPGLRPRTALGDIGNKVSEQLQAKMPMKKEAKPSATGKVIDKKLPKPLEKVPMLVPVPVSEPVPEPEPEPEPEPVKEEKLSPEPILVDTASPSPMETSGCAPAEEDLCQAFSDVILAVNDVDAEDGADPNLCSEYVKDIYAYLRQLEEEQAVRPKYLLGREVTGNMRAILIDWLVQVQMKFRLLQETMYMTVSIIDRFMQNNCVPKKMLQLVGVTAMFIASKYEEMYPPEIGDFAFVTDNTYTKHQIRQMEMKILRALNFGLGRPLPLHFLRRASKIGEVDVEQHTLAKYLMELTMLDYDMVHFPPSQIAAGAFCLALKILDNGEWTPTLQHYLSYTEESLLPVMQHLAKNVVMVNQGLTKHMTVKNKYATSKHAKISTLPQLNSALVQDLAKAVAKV
Chain of ABL1 (P00519 whole entry, species assumed): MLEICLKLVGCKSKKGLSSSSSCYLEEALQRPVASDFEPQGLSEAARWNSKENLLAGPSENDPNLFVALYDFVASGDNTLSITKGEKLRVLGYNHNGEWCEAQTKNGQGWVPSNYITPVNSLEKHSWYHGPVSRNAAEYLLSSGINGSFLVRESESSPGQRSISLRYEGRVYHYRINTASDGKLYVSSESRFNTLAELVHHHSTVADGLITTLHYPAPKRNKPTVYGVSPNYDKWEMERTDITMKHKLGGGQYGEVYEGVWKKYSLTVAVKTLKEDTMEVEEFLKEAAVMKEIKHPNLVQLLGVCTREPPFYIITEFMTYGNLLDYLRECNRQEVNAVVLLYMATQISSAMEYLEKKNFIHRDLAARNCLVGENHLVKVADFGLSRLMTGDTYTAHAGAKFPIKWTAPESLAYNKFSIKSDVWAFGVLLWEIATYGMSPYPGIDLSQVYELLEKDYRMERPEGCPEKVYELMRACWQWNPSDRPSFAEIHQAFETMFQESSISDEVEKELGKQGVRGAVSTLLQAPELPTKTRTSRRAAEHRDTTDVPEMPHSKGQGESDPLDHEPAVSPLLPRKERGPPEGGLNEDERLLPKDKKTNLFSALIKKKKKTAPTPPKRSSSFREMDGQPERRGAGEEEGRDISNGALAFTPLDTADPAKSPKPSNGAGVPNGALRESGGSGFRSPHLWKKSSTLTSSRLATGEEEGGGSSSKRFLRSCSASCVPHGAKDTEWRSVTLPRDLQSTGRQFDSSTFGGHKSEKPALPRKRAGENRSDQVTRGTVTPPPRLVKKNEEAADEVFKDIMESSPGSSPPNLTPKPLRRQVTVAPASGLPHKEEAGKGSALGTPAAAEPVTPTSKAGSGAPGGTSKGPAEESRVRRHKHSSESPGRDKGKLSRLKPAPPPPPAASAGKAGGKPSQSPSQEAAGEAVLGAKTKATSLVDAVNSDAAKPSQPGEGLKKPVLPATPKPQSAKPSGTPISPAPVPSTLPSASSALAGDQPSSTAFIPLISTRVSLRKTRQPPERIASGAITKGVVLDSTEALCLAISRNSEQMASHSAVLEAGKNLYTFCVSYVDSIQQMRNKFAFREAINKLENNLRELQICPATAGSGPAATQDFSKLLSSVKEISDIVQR

## CCc1ccc(CN(C)C(=O)CCc2nnc(CCc3c[nH]c4ccccc34)o2)nc1 (racemic) [Compound 1]
SEM leukemic cell line; vs vehicle group
  relative weight of the mice: nearly identical
SEM leukemic cell line; imaged in supine or prone position, vs vehicle
  bioluminescence in the mice: significantly reduced
12 GPCRs
  binding to the 12 GPCRs tested: no significant binding
SEM cells
  IC50: 43.8 µM
CDC42
  total CDC42 levels: no significant effect
CDC42; pull down
  CDC42 activation: dose dependent reduction
Rac [1]
  Rac activation status in spleen: reduced Rac activation
40 kinases
  inhibition of the 40 kinases tested: no significant inhibition
RAS
  RAS activation: no significant effect
RHOA
  RHOA activation: no significant effect
MAPK3 (ERK1)
  inhibition percentage: 6.7 percentage
JAK2
  inhibition percentage: −11.6 percentage
AKT2 (PKB beta)
  inhibition percentage: 11.5 percentage
IGF1R
  inhibition percentage: −7.4 percentage
CDK1/cyclin B
  inhibition percentage: −2.3 percentage
JAK1
  inhibition percentage: −3.3 percentage
LIMK2
  inhibition percentage: 0.4 percentage
JAK3
  inhibition percentage: −16.3 percentage
ABL1
  inhibition percentage: 0.6 percentage
PIK3C2A (PI3K-C2 alpha)
  inhibition percentage: −1.3 percentage
EPHB1
  inhibition percentage: 7.1 percentage
P12-Ichikawa cells
  IC50: 39.2 µM
SEM cell line
  cell apoptosis and cell death: caused cells apoptosis and cell death
Rac [2]
  total Rac levels: no significant effect
Rac [2]; pull down
  Rac activation: dose dependent reduction
